Values of other authors as cited in patent US20020018777A1, “STERILIZATION OF VIRUS INFECTED PLASMA” (priority 1995, published 2002).

Conditions: concentrated BPL, animals

## O=C1CCO1 [BPL, β-propiolactone]
  carcinogenicity: carcinogenic
